The text below walks through data of ChEMBL document CHEMBL1129621, “Novel 5-aminoflavone derivatives as specific antitumor agents in breast cancer” (J Med Chem, 1996).

Assay [1] deals with MCF7. The experiment in a line: cells. The conditions noted are these: Homo sapiens. The class given is functional, cell-based.
Description: Inhibition of 10e-4 uM estradiol induced estrogen receptor positive MCF-7 human breast cancer cell proliferation
Assay [2] deals with MCF7. The experiment in a line: cells. The class given is functional, cell-based. As to conditions: Homo sapiens. This is another data set of the same source.
Description: Anti-proliferative activity against estrogen-responsive human breast cancer cell line MCF-7 in the presence of ER at a 10e-4 uM concentration of estradiol
Another assay has as its target Estrogen receptor (Homo sapiens, UniProt Q92731+P03372).
Assay [3] concerns MCF7. In words: Inhibition of estrogen receptor positive MCF-7 human breast cancer cell proliferation. The class given is functional, cell-based.
Assay [4] concerns HeLa. In words: Inhibition of […]e-2 uM estradiol induced human cancer cell HeLa S3 proliferation. The class given is functional, cell-based.
The test system of assay [5] is WiDr. In words: Inhibition of WiDr human cancer cell proliferation. It counts as functional, cell-based.
Assay [6] relates to MDA-MB-453. The experiment in a line: Inhibition of estrogen receptor negative MDA-MB-453 breast cancer cell proliferation. The class given is functional, cell-based. The conditions noted are these: Homo sapiens.
In assay [7] the test system is HeLa. In words: cells. The conditions noted are these: Homo sapiens.
Description: Inhibition of 10e-2 uM estradiol induced human cancer cell HeLa S3 proliferation
Assay [8] has as its system WiDr. The experiment in a line: Inhibition of WiDr human cancer cell proliferation with 10e-2 uM estradiol. The class given is functional, cell-based.
Assay [9] deals with MDA-MB-453. In words: cells. The conditions noted are these: Homo sapiens.
Description: Inhibition of estrogen receptor negative MDA-MB-453 breast cancer cell proliferation with 10e-4 M estradiol

Description for Estrogen receptor: Binding affinity for estrogen receptor, by competition with [3H]estradiol

`CN(C)c1ccc(-c2cc(=O)c3ccc(N)cc3o2)cc1`: the IC50 in the assay on MCF7 [1] turned out to be 6.9 µM; in the assay with MCF7 [2], 5 µM.

`Nc1cccc2oc(-c3ccc(Br)cc3)cc(=O)c12`: the IC50 in the assay with MCF7 [1] is 9.5 µM; against Estrogen receptor it was above 100 µM; with MCF7 [2] it was 1 µM.

Turning to `Nc1cccc2oc(-c3ccc(O)cc3)cc(=O)c12`, the IC50 in the assay with MCF7 [1] was above 100 µM; against Estrogen receptor, 18 µM; with MCF7 [2], 1.5 µM.

Consider `CCN(CC)c1ccc(-c2cc(=O)c3c(N)cccc3o2)cc1`, for which the figures for the IC50 in the assay on MCF7 [1] and with MCF7 [2] were 0.01 µM and 0.002 µM, respectively.

Consider `N#Cc1ccc(-c2cc(=O)c3c(N)cccc3o2)cc1`, for which the IC50 in the assay with MCF7 [1] was 94 µM; against Estrogen receptor, above 100 µM; with MCF7 [2], above 100 µM.

In the case of `CC(=O)Nc1ccc(-c2cc(=O)c3c(N)cccc3o2)cc1`, the IC50 in the assay with MCF7 [1] was 18 µM; on Estrogen receptor it was above 100 µM; in the assay with MCF7 [2], 13 µM.

As for `CN(C)c1ccc(-c2cc(=O)c3c(N)cccc3o2)cc1`, the IC50 in the assay on MCF7 [1] was 0.005 µM; at Estrogen receptor it was above 100 µM; in the assay with MCF7 [2] it was 0.004 µM.

For `CN(C)c1cccc(-c2cc(=O)c3cc(N)ccc3o2)c1`, the IC50 with MCF7 [1] and in the assay on MCF7 [2] was 13 µM throughout.

For `CCCCNc1ccc(-c2cc(=O)c3c(N)cccc3o2)cc1`, the IC50 was 0.0087 µM in the assay on MCF7 [1], above 100 µM against Estrogen receptor and 0.0051 µM in the assay with MCF7 [2].

Regarding `CN(C)c1ccc(-c2cc(=O)c3cc(N)ccc3o2)cc1`, the IC50 in the assay on MCF7 [1] came to 0.035 µM; in the assay with MCF7 [2] it was 0.013 µM.

For the compound `Nc1cccc(-c2cc(=O)c3c(N)cccc3o2)c1`, the results for the IC50 in the assay with MCF7 [1] and in the assay on MCF7 [2] were above 100 µM and 27 µM, respectively.

In the case of `Nc1cccc2oc(-c3ccc(NCc4ccccc4)cc3)cc(=O)c12`, the IC50 in the assay on MCF7 [1] was 4.3 µM; on Estrogen receptor it was above 100 µM; in the assay with MCF7 [2], 4.1 µM.

On to `CCNc1ccc(-c2cc(=O)c3c(N)cccc3o2)cc1`, for which the IC50 was 0.092 µM in the assay with MCF7 [3]; above 10 µM in the assay on HeLa [4]; 0.0017 µM in the assay with MCF7 [1]; above 100 µM on Estrogen receptor; 0.0013 µM in the assay on MCF7 [2]; above 10 µM with WiDr [5].

On to `COc1ccc(-c2cc(=O)c3c(N)cccc3o2)cc1`, for which the IC50 in the assay with MCF7 [1] was above 100 µM; against Estrogen receptor, above 100 µM; with MCF7 [2], 12 µM.

As to `Nc1cccc2oc(-c3ccc(C(=O)O)cc3)cc(=O)c12`, the IC50 in the assay on MCF7 [1] and with MCF7 [2] was above 10 µM throughout.

For `CNc1ccc(-c2cc(=O)c3c(N)cccc3o2)cc1`, the IC50 in the assay on MCF7 [3] was 0.076 µM; with HeLa [4], 6.3 µM; in the assay with MCF7 [1], 0.0054 µM; at Estrogen receptor, above 100 µM; in the assay on MCF7 [2], 0.0023 µM; in the assay on WiDr [5] it was above 10 µM.

For `CN(C)c1ccc(-c2cc(=O)c3cccc(N)c3o2)cc1`, the IC50 with MCF7 [1] amounted to 2 µM; in the assay with MCF7 [2], 0.021 µM.

As for `CCCCCCNc1ccc(-c2cc(=O)c3c(N)cccc3o2)cc1`, the IC50 with MCF7 [1] was determined as 0.44 µM; in the assay with MCF7 [2] it was 0.075 µM.

With `CCCNc1ccc(-c2cc(=O)c3c(N)cccc3o2)cc1`, the figures for the IC50 in the assay with MCF7 [1], against Estrogen receptor and with MCF7 [2] were 0.0087 µM, above 100 µM and 0.0067 µM, respectively.

In the case of `Nc1cccc2oc(-c3ccccc3)cc(=O)c12`, the IC50 is above 100 µM in the assay on MCF7 [1], above 100 µM against Estrogen receptor and 13 µM with MCF7 [2].

As for `Nc1ccc(-c2cc(=O)c3c(N)cccc3o2)cc1`, the IC50 with MCF7 [3] is 0.052 µM; with HeLa [4], above 10 µM; in the assay with MDA-MB-453 [6] it was above 5 µM; with MCF7 [1], 0.0098 µM; at Estrogen receptor, above 100 µM; in the assay with MCF7 [2], 0.0072 µM. In addition, the IC50 in the assay on WiDr [5] was above 10 µM.

Turning to `O=c1cc(-c2ccc(O)cc2)oc2cc(O)cc(O)c12` [APIGENIN], the IC50 in the assay with MCF7 [1] was 95 µM; in the assay on MCF7 [2], above 100 µM.

Take `COc1cccc2c1C(=O)c1c(O)c3c(c(O)c1C2=O)C[C@@](O)(C(=O)CO)C[C@@H]3O[C@H]1C[C@H](N)[C@H](O)[C@H](C)O1` [DOXORUBICIN]: the IC50 in the assay on HeLa [7] worked out at 0.03 µM; in the assay on WiDr [8], 0.62 µM.

As for `O=c1c(-c2ccc(O)cc2)coc2cc(O)cc(O)c12` [GENISTEIN], the IC50 stood at 77 µM in the assay on MCF7 [1] and 11 µM in the assay with MCF7 [2].

On to `CC/C(=C(\c1ccccc1)c1ccc(OCCN(C)C)cc1)c1ccccc1` [TAMOXIFEN], for which the IC50 in the assay on MDA-MB-453 [9] is above 5 µM; with MCF7 [1], 19 µM; in the assay on MCF7 [2], 0.14 µM.

For orientation: IC50 means the concentration that inhibits the measured activity by half. Low values mean greater potency, high ones weaker potency.
